Data: patent US20260008784A1 (VASTHERA CO., LTD., priority 2022, published 2026)

Tests used:
[1] = system: yeast thioredoxin (Trx)/yeast Trx reductase (TR); assay: Peroxidase activity assay (H2O2 reduction, NADPH oxidation); assay type: biochemical; details: 50 μM test compound, 3 μM yeast Trx, 1.5 μM yeast TR, 250 μM NADPH, 1.2 mM H2O2, 30° C.; NADPH oxidized per minute
Method in brief: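 Buffer: 50 mM HEPES pH 7.0, 1 mM EDTA, 250 μM NADPH, 3 μM yeast Trx, 1.5 μM yeast TR, 50 μM test compound; reaction started with 1.2 mM H2O2. A340 decrease followed at 30° C for 12 min. Initial rate is NADPH oxidized per minute, taken from the linear slope.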

[2] = system: NIH-3T3 cells; assay: Intracellular H2O2-eliminating activity (CM-H2DCF-DA fluorescence); assay type: cell-based; details: Mus musculus, NIH3T3, glucose oxidase, concentration at 50% reduction of intracellular H2O2
Procedure: The activity of test compounds in present invention to eliminate intracellular H2O2 was measured as follows. NIH-3T3 cells (ATCC) were seeded in a 35-mm culture dish at 2×10^5 cells/well. After culture for 24 hours, cells were serum-starved with phenol red free-basal DMEM containing 0.5% FBS for 6 h. Starved NIH 3T3 cells were pretreated with compounds diluted with phenol red free-basal DMEM at concentrations ([…]) for 30 min, followed by treatment with 20 mU of glucose oxidase (Gox) for 30 min. A reactive oxygen species-sensitive fluorescence dye, carboxymethyl-dichlorofluorescein-diacetate (CM-H2DCF-DA), which was prepared in 1 mM DMSO stock and diluted 500 times in phenol red free-basal DMEM, was added to the cells and incubated for 5 min. Then, cells were quickly rinsed with basal medium. Images were taken at excitation 497 nm/emission 518 nm settings using a fluorescence microscope. Three images at 10× magnification per sample were obtained, and fluorescence intensities from 30 or more individual cells per image were averaged.
The intracellular H2O2-eliminating activity of test compounds in present invention was measured using a live-cell imaging fluorescence probe (CM-HaDCF-DA). H2O2-eliminating activity was measured depending on ascending concentrations of the test compound and expressed as the percent of activity compared to the untreated control group. EC50 represents the concentration of test compound at 50% reduction of intracellular H2O2.

[3] = Measurement of redox potential (DTT redox buffers, HPLC); assay type: physicochemical; details: DTT(Red)/DTT(Ox) redox buffers, 3 h, 30° C., 50% reduction of test compound
[4] = system: Tyr 1175 phosphorylation of VEGF receptor-2 (VEGFR2) in HAEC; assay: Immunoblot of VEGF-mediated signaling in PrxII knock-down HAEC; assay type: cell-based, human; details: for Effect on phosphorylation of Tyr 1175 on VEGFR2: HAECs depleted of PrxII expression, FIG. 5
[5] = system: human aortic smooth muscle cell (HASMC); assay: PDGF-induced proliferation assay, HASMC (PrxII siRNA); assay type: cell-based; details: for Degree of HASMC proliferation: PDGF-BB 25 ng/mL, percent of untreated control; for IC50: Homo sapiens, HASMC, 50% growth inhibition, PDGF-stimulated
[6] = system: human pulmonary artery smooth muscle cell (PASMC); assay: PDGF-induced proliferation assay, PASMC (PrxII siRNA); assay type: cell-based; details: for Degree of PASMC proliferation: PDGF-BB 25 ng/mL, percent of untreated control; for IC50: Homo sapiens, PASMC, 50% growth inhibition, PDGF-stimulated

Row | SMILES | Peroxidase activity for H2O2 reduction [1] [nmol/min] | EC50 [2] [nM] | Midpoint redox potential (E m) [3] [mV] | Effect on phosphorylation of Tyr 1175 on VEGFR2 [4] | Concentrations at which phosphorylation of Tyr 1175 on VEGFR2 is significantly reduced ([4]; HAECs, PrxII knock-down, FIG. 4) | Degree of HASMC proliferation ([5]; 2.5 nM) [%] | Degree of HASMC proliferation ([5]; 5 nM) [%] | Degree of HASMC proliferation ([5]; 10 nM) [%] | Degree of HASMC proliferation ([5]; 25 nM) [%] | IC50 [5] [nM] | Degree of PASMC proliferation ([6]; 2.5 nM) [%] | Degree of PASMC proliferation ([6]; 5 nM) [%] | Degree of PASMC proliferation ([6]; 10 nM) [%] | Degree of PASMC proliferation ([6]; 25 nM) [%] | Degree of PASMC proliferation ([6]; 50 nM) [%] | Degree of PASMC proliferation ([6]; 100 nM) [%] | IC50 [6] [nM]
1 | CN1C(=O)C2(C)SSCC1C(=O)N2C (stereo not drawn) [Compound 1, 1,6,8-trimethyl-2,3-dithia-6,8-diazabicyclo[3.2.2]nonane-7,9-dione] | 4.92 | 8.25 | −285.25 | strongly abolish the phosphorylation | above 2.5 nM | 70.0 | 43.9 | 17.1 | 1.5 | 4.18 | 70.8 | 49.8 | 29.4 | 14.3 | 0.0 | 0.0 | 5.01
2 | CN1C(=O)C2CSSC1(C)C(=O)N2Cc1ccc2ccccc2n1 (stereo not drawn) [Compound 5, 1,8-dimethyl-6-(quinolin-2-ylmethyl)-2,3-dithia-6,8-diazabicyclo[3.2.2]nonane-7,9-dione] | 4.80 | 7.77 | −290.3 | strongly abolish the phosphorylation | – | 62.3 | 52.4 | 36.9 | 9.7 | 4.87 | 71.3 | 48.3 | 37.5 | 26.8 | 1.9 | 2.5 | 5.64
3 | O=C1C2CSSC3(COCCN13)C(=O)N2Cc1ccccc1 (stereo not drawn) [Compound 8, 12-benzyltetrahydro-5H,10H-4,10a-(epiminomethano)[1,4]oxazino[3,4-c][1,2,4]dithia zepine-5,11-dione] | 4.91 | 6.57 | −272.6 | – | – | 75.1 | 40.1 | 46.9 | 30.2 | 6.46 | 57.7 | 41.7 | 24.8 | 5.7 | 0.0 | 0.0 | 3.52
4 | CCN1C(=O)C2(C)SSCC1C(=O)N2CC (stereo not drawn) [Compound 20, 6,8-diethyl-1-methyl-2,3-dithia-6,8-diazabicyclo[3.2.2]nonane-7,9-dione] | 4.78 | – | −296.79 | strongly abolish the phosphorylation | – | 85.8 | 58.7 | 34.9 | 12.3 | 6.69 | 82.2 | 51.5 | 31.6 | 21.1 | 7.3 | 5.2 | 6.17
